From ChEMBL document CHEMBL4325834, “De Novo Molecular Design of a Novel Octapeptide That Inhibits In Vivo Melanogenesis and Has Great Transdermal Ability” (J Med Chem, 2018)
Active and inactive are the calls of the source. No cut-off for these calls is given here. Where a SMILES comes first, the peptide text is derived from it.

Key:
[1] = biological target: T1, Tyrosinase (Mus musculus) (UniProt P11344); assay: Inhibition of TYR activity in mouse B16 cells 20 uM using L-dopa as substrate after 72 hrs relative to control; assay type: cell-based
T1 sequence (whole entry): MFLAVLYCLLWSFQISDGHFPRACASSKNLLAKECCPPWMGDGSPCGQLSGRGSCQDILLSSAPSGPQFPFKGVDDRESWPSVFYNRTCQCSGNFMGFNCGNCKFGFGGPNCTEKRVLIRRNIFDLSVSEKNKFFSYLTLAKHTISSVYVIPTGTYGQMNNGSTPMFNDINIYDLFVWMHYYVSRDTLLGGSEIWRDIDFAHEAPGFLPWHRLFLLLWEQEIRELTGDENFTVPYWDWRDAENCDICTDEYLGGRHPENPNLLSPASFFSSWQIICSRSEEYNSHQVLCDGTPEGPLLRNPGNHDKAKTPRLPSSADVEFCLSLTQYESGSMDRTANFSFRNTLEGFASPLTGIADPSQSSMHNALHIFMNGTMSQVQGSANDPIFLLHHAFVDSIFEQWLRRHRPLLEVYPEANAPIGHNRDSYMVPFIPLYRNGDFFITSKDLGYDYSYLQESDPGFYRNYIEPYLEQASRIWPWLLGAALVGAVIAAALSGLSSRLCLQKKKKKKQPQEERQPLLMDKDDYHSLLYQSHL

HaCaT = assay: Cytotoxicity against human HaCaT cells up to 150 uM by MTT assay relative to control; assay type: cell-based
[2] = biological target: T1, Tyrosinase (Mus musculus); assay: Inhibition of TYR activity in mouse B16 cells assessed as increase in whitening at 20 uM preincubated for 72 hrs followed L-dopa substrate addition and measured after 4 hrs by fluorescence microscopy; assay type: cell-based
[3] = Hemolytic activity against human erythrocytes assessed as amount of hemoglobin released from lysed cells up to 150 uM relative to control; assay type: ADME, cell-based, Erythrocyte; settings: read-out: Activity
[4] = Antioxidant activity assessed as ABTS radical scavenging activity at 80 uM after 10 mins relative to control; assay type: functional
B16 [5] = assay: Cytotoxicity against mouse B16 cells up to 150 uM by MTT assay relative to control; assay type: cell-based
[6] = biological target: T1, Tyrosinase (Mus musculus); assay: Inhibition of TYR activity in mouse B16 cells assessed as effect on pallet after exfoliation at 20 uM preincubated for 72 hrs followed L-dopa substrate addition and measured after 4 hrs by fluorescence microscopy; assay type: cell-based
B16 [7] = assay: Downregulation of TYR protein expression in mouse B16 cells after 72 hrs by Western blot analysis; assay type: functional, cell-based
B16 [8] = assay: Downregulation of MITF protein expression in mouse B16 cells after 72 hrs by Western blot analysis; assay type: functional, cell-based
[9] = Antioxidant activity assessed as DPPH free radical scavenging activity at 80 uM after 30 mins relative to control; assay type: functional
[10] = Reducing power of the compound assessed as reducing Fe3+ power at 80 uM using K3Fe(CN)6 in pH 6.6 phosphate buffer relative to control
[11] = biological target: T1, Tyrosinase (Mus musculus); assay: Inhibition of TYR activity in mouse B16 cells assessed as melanin levels post exfoliation at 20 uM after 72 hrs by spectrophotometric analysis relative to control; assay type: cell-based; parameters: scale not given: the % may be the effect or the level left
[12] = biological target: T2, Tyrosinase (Agaricus bisporus) (UniProt O42713); assay: Inhibition of mushroom tyrosinase using L-dopa as substrate assessed as reduction in L-dopa oxidation at IC50 by spectrophotometry
T2 sequence (whole entry): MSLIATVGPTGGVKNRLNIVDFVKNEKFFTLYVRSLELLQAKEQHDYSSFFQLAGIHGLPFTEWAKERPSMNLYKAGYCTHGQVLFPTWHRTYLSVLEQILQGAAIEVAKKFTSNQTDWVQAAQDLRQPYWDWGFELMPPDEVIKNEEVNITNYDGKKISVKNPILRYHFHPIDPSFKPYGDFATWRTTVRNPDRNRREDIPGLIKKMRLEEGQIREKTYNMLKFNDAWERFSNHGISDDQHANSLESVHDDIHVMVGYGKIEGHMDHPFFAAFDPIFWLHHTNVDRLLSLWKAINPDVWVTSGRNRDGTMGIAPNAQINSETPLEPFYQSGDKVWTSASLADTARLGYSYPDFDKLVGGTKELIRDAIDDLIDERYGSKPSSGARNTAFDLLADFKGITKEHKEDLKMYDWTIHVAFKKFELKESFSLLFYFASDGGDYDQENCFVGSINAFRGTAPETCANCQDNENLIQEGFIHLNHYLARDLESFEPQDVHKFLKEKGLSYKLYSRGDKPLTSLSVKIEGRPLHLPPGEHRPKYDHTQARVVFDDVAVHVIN

[13] = biological target: T1, Tyrosinase (Mus musculus); assay: Inhibition of TYR activity in mouse B16 cells assessed as reduction in melanin levels at 20 uM after 24 hrs by spectrophotometric analysis relative to control; assay type: cell-based
Tyrosinase = biological target: T3, Tyrosinase (Agaricus bisporus, UniProt O42713); assay: Inhibition of mushroom tyrosinase using L-dopa as substrate assessed as reduction in dopachrome production after 20 mins by spectrophotometry
T3 sequence (O42713 whole entry): T2 sequence (whole entry)

[14] = biological target: T2, Tyrosinase (Agaricus bisporus); assay: Potency index, ratio of IC50 for arbutin to IC50 for test compound for inhibition of mushroom tyrosinase using L-dopa as substrate assessed as reduction in dopachrome production after 20 mins by spectrophotometry

inhibition [1] [%] | inhibition [2] | Activity [6] | Activity [11] [%] | inhibition [12] | inhibition [13] | IC50 (Tyrosinase) [µM] | Ratio IC50 [14] | SMILES | Activity (HaCaT) [%] | hemolysis [3] [%] | Activity [4] [%] | Activity (B16 [5]) [%] | inhibition (B16 [7]) | inhibition (B16 [8]) | Activity [9] [%] | Activity [10]
10.4 | Active | Active | 76.3 | – | – | – | – | OC[C@H]1O[C@@H](Oc2ccc(O)cc2)[C@H](O)[C@@H](O)[C@@H]1O [ARBUTIN] | 31 | 27 | 53 | 29 | inactive | inactive | 22 | 0.12
16 | Active | Active | 63.5 | Active | Active | 73 | 10 | CC(C)[C@H](NC(=O)[C@H](CO)NC(=O)[C@H](CCCNC(=N)N)NC(=O)[C@H](CS)NC(=O)[C@@H](NC(=O)[C@H](CCCNC(=N)N)NC(=O)[C@@H](N)Cc1ccccc1)[C@@H](C)O)C(=O)N[C@@H](CS)C(=O)O (H-FRTCRSVC-OH) | 2 | 3 | 84 | 3 | Active | Active | 94 | 0.25
